Source: patent publication US20120196748A1, “PESTICIDAL COMPOSITION” (SYNGENTA LIMITED, priority 2009, published 2012)

Legend:
[1] = Soil mobility of herbicides, uptake by concentric PDMS rings; format: physicochemical; details: 7 days after application, sandy loam soil, moisture content 26.3%
Protocol: The soil mobility of various herbicides were examined in sandy loam soil with a moisture content of 26.3%. Three concentric PDMS (polydimethyl siloxane) rings having diameters of 2, 4 and 6 cm, respectively were placed in the soil at three different depths at 0.5 cm apart. 1 ml of a herbicide solution is injected in the center of the rings. The uptake of the herbicide by the rings were analysed 7 days after herbicide application.

weeds = test: Field weed control by clomazone-treated wheat seeds; format: in vivo; details: field at Möhlin, 64 days after planting
Protocol: Two different types of wheat seeds were used, i.e. Match and Steme. The treated wheat seeds were sown in the field (at Möhlin in Swtzerland). 64 days after planting the control of weeds was analysed.

[2] = uptake by PDMS ring of 2 cm diameter
[3] = uptake by PDMS ring of 4 cm diameter

SMILES	Percentage of totally applied herbicide (%) [1, 2] [%]	Percentage of totally applied herbicide (%) [1, 3] [%]	Percentage of totally applied herbicide (%) ([1]; uptake by PDMS ring of 6 cm diameter)	Weed control (%) (weeds; wheat seed type Match)	Weed control (%) (weeds; wheat seed type Steme)
CCc1cccc(C)c1N(C(=O)CCl)[C@@H](C)COC [S-metalochlor]	0.11	–	–	–	–
CCCN(CCC)C(=O)SCC [EPTC]	12.70	5.56	0.97	–	–
CCOCN(C(=O)CCl)c1c(C)cccc1CC [Acetochlor]	0.14	–	–	–	–
CCCN(CCC)c1c([N+](=O)[O-])cc(C(F)(F)F)cc1[N+](=O)[O-] [Trifluralin]	0.62	0.02	–	–	–
CC1(C)CON(Cc2ccccc2Cl)C1=O [Clomazone]	0.36	–	–	95	95
